Results taken from ChEMBL document CHEMBL1201862, “PubChem BioAssay data set” (2004).
The source made the active and inactive calls.

Tests used:
Hexokinase = target: T1, Hexokinase (Trypanosoma brucei, UniProt Q38C41); experiment: Confirmation assay for inhibitors of Trypanosoma brucei hexokinase 1-Analogue-first series. [Related pubchem assays (depositor defined):AID1430, AID1632, AID2516, AID2560, AID2579, AID2600, AID449725, AID492951]; type: functional
T1 sequence (Q38C41 whole entry): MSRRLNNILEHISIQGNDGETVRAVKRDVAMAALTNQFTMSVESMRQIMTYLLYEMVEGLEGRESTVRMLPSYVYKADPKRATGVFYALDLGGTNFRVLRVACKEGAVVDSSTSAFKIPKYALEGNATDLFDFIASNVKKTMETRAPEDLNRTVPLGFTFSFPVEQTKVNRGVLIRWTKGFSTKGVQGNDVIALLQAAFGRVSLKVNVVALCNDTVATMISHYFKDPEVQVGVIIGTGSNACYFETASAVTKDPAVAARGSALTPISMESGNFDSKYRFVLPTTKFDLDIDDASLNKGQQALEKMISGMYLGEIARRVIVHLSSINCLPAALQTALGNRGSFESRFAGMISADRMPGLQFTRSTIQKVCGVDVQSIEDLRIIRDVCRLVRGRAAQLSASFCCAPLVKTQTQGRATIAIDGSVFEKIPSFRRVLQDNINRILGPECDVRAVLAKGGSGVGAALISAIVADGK

[1] = target: DNA dC->dU-editing enzyme APOBEC-3A (Homo sapiens, UniProt P31941); experiment: Dose Response confirmation of small molecule APOBEC3A DNA Deaminase Inhibitors via a fluorescence-based single-stranded DNA deaminase assay. [Related pubchem assays (depositor defined):AID493011, AID493024]; type: functional
Chain of DNA dC->dU-editing enzyme APOBEC-3A (P31941 whole entry): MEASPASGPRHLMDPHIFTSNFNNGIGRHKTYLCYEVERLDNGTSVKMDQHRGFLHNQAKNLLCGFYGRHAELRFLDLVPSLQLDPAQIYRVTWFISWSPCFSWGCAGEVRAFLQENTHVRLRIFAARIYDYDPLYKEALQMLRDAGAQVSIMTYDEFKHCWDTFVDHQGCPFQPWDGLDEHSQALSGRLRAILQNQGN

[2] = target: DNA dC->dU-editing enzyme APOBEC-3G (Homo sapiens, UniProt Q9HC16); type: functional;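 further: Dose-response counterscreen measuring inhibition of APOBEC3G DNA deaminase activity, run while confirming APOBEC3A inhibitors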
Chain of DNA dC->dU-editing enzyme APOBEC-3G (Q9HC16 whole entry): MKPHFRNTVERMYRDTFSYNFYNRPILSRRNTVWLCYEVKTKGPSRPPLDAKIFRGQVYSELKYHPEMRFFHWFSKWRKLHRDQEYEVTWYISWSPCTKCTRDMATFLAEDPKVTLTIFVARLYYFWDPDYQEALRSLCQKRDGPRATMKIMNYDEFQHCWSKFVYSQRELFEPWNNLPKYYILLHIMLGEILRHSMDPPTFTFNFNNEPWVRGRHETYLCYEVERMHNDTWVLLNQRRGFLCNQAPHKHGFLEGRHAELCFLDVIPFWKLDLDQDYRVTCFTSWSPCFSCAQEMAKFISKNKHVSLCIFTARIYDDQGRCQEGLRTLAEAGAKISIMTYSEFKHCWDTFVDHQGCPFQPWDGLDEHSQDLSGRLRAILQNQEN

[3] = target: T2, Neuropeptide Y receptor type 1 (Homo sapiens, UniProt P25929); type: functional;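 further: HEK293 cells with a CNG channel challenged with NPY then isoproterenol; potency as antagonist that reverses NPY suppression of cAMP signal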
T2 sequence (P25929 whole entry): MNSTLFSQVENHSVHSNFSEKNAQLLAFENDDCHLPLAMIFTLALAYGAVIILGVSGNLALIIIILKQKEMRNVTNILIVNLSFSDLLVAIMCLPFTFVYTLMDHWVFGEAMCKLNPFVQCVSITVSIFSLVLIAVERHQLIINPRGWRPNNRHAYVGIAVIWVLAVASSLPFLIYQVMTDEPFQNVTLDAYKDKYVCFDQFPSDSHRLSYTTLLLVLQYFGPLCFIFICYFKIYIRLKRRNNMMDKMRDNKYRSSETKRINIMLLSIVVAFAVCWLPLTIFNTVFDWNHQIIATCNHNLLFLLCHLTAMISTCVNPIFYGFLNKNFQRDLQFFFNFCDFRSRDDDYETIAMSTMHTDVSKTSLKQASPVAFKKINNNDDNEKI

[4] = target: T3, Neuropeptide Y receptor type 2 (Homo sapiens, UniProt P49146); type: functional, cell-based;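 further: HEK293 cells expressing the receptor and a CNG channel; stimulus was NPY near EC95 followed by isoproterenol to raise cAMP; antagonist potency measured as restoring cAMP signal that NPY suppresses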
T3 sequence (P49146 whole entry): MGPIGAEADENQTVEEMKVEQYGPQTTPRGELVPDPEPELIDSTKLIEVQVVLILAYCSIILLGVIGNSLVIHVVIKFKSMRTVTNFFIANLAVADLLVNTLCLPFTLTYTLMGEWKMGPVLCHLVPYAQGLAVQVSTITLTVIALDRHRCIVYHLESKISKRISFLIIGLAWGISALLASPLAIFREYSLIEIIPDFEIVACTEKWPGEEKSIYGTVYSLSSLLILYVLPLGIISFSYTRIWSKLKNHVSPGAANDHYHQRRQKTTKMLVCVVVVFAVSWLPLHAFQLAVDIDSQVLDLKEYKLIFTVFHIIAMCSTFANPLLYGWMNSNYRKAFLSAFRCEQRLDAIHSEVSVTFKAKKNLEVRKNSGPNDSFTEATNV

[5] = target: T4, Corticotropin-releasing factor receptor 2/Corticotropin-releasing factor-binding protein (Homo sapiens, UniProt P24387+Q13324); experiment: Dose Response confirmation of uHTS hits for small molecule antagonists of the CRF-binding protein and CRF-R2 receptor complex.; type: functional; settings: read-out: IC50_Mean
T4 sequence (Q13324 whole entry): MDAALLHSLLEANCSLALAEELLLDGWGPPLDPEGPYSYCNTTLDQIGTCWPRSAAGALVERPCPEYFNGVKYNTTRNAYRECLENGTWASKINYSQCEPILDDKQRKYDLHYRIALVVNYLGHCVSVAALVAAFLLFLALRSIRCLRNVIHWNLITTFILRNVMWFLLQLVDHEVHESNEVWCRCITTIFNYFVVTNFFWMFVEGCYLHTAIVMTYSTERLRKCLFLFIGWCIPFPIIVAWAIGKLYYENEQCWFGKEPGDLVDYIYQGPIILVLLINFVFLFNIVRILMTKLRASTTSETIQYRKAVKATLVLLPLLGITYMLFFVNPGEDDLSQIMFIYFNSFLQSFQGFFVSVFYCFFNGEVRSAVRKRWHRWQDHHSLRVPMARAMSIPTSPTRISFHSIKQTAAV
T4 sequence (P24387 whole entry): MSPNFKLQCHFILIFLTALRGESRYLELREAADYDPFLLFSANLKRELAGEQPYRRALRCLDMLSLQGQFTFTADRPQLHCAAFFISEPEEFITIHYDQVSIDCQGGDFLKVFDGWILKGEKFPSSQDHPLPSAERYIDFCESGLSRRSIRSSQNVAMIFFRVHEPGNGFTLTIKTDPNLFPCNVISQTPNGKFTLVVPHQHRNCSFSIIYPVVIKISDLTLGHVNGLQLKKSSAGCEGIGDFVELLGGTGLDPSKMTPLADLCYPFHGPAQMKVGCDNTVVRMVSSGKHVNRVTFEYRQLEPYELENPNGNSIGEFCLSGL

[6] = target: T4, Corticotropin-releasing factor receptor 2/Corticotropin-releasing factor-binding protein; experiment: activators of CRF receptor 2 with binding protein – uHTS hits, confirmation (AID 602473); type: functional; settings: read-out: EC50_Mean
[7] = target: T5, Tyrosine-protein phosphatase non-receptor type 7 (Homo sapiens, UniProt P35236); type: functional
T5 sequence (P35236 whole entry): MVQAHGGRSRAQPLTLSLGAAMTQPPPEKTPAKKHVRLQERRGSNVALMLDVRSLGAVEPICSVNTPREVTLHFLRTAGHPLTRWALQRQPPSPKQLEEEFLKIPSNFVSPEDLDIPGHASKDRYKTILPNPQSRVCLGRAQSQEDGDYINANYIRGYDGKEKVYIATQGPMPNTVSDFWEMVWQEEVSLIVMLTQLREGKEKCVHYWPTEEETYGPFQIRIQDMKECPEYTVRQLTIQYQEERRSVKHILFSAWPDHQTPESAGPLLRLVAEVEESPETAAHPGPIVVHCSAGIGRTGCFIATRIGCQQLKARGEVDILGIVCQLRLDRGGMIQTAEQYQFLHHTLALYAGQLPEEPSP

[8] = target: Glyceraldehyde-3-phosphate dehydrogenase (Homo sapiens, UniProt P04406)
Chain of Glyceraldehyde-3-phosphate dehydrogenase (P04406 whole entry): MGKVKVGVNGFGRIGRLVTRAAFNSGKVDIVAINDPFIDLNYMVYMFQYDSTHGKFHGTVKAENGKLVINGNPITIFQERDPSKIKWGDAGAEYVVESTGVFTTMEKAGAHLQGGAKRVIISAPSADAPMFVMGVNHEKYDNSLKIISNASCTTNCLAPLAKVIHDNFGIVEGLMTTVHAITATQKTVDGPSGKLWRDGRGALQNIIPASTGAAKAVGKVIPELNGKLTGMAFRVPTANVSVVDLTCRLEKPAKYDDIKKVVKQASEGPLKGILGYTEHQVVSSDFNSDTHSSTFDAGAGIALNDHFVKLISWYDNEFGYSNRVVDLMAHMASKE

[9] = target: T6, Dual specificity protein phosphatase 6 (Rattus norvegicus, UniProt Q64346)
T6 sequence (Q64346 whole entry): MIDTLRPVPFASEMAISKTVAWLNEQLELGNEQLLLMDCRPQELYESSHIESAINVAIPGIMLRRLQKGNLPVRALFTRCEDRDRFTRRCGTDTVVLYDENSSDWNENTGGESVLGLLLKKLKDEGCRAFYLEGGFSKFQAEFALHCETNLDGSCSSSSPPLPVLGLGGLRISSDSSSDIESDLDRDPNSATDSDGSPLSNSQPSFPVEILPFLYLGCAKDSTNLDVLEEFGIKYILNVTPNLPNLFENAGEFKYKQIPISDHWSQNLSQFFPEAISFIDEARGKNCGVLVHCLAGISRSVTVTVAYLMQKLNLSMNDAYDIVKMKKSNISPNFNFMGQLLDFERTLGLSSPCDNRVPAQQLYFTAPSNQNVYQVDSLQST

[10] = target: T6, Dual specificity protein phosphatase 6; type: functional
[11] = target: Peroxisome proliferator-activated receptor gamma/Nuclear receptor coactivator 2 (Homo sapiens, UniProt P37231); type: functional;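 further: agonist potency for raising coactivator recruitment to the receptor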
Chain of Peroxisome proliferator-activated receptor gamma/Nuclear receptor coactivator 2 (P37231 whole entry): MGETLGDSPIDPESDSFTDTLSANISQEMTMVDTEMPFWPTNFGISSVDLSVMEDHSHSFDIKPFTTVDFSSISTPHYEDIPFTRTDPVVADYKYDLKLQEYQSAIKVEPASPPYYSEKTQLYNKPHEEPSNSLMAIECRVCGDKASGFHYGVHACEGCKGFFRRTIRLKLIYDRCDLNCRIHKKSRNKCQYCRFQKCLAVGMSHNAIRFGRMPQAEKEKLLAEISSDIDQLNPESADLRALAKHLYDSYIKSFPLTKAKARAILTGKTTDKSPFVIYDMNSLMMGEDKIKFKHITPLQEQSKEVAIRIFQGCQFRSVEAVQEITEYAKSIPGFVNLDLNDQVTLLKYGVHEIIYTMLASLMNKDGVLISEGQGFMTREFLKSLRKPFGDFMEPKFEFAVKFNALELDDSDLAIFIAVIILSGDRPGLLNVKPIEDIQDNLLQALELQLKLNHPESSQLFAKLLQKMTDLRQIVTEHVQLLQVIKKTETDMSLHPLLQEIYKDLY
Chain of Peroxisome proliferator-activated receptor gamma/Nuclear receptor coactivator 2 (Q15596 whole entry, further chain): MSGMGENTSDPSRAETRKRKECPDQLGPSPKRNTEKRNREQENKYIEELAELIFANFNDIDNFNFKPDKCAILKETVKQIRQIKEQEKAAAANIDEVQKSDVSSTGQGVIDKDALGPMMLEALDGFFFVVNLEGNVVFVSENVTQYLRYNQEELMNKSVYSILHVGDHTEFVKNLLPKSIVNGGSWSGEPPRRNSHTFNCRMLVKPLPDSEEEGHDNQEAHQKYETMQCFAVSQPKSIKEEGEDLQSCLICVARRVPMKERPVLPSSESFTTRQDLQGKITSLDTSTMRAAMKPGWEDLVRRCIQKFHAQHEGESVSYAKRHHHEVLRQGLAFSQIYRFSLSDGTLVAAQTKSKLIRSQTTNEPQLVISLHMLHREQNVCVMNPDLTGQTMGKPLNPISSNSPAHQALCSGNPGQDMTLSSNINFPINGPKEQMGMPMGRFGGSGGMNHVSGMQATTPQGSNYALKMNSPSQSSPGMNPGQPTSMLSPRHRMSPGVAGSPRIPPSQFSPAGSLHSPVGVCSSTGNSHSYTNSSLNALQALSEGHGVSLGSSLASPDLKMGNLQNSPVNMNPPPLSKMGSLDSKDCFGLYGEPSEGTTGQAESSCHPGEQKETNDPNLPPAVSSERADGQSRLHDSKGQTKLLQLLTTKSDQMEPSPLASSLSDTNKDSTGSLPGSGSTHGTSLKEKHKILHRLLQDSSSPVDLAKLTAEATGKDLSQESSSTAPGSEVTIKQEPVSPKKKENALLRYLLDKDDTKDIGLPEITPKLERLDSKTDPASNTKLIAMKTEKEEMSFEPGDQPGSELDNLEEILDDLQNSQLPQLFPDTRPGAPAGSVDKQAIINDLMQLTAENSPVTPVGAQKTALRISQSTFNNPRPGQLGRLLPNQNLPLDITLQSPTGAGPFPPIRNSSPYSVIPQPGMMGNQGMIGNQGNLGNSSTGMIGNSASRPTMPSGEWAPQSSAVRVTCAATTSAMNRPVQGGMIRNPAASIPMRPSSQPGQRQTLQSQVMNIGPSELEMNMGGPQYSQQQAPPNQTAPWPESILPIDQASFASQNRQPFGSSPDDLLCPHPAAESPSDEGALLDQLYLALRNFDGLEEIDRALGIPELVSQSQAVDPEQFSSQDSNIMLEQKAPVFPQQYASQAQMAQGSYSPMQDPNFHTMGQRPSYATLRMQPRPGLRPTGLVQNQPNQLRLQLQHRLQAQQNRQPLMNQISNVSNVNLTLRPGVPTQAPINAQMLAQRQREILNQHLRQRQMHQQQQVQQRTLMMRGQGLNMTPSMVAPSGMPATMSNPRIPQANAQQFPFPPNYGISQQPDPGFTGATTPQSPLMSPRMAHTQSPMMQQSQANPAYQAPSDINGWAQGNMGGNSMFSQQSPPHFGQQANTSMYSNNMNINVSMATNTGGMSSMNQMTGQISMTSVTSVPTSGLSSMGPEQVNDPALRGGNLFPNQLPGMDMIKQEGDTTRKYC

[12] = target: Peroxisome proliferator-activated receptor gamma/Nuclear receptor coactivator 1 (Homo sapiens, UniProt P37231); type: functional;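 further: agonist potency as compounds enhance coactivator SRC-1 recruitment to PPARgamma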
[13] = target: Peroxisome proliferator-activated receptor gamma/Nuclear receptor coactivator 3 (Homo sapiens, UniProt P37231); type: functional;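 further: agonist potency for raising coactivator recruitment to the receptor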
Large T antigen = Large T antigen (Simian virus 40, UniProt P03070); type: functional, Betapolyomavirus macacae;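 further: Confirmatory-stage PubChem screen for compounds that inhibit SV40 T antigen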
Chain of Large T antigen (P03070 whole entry): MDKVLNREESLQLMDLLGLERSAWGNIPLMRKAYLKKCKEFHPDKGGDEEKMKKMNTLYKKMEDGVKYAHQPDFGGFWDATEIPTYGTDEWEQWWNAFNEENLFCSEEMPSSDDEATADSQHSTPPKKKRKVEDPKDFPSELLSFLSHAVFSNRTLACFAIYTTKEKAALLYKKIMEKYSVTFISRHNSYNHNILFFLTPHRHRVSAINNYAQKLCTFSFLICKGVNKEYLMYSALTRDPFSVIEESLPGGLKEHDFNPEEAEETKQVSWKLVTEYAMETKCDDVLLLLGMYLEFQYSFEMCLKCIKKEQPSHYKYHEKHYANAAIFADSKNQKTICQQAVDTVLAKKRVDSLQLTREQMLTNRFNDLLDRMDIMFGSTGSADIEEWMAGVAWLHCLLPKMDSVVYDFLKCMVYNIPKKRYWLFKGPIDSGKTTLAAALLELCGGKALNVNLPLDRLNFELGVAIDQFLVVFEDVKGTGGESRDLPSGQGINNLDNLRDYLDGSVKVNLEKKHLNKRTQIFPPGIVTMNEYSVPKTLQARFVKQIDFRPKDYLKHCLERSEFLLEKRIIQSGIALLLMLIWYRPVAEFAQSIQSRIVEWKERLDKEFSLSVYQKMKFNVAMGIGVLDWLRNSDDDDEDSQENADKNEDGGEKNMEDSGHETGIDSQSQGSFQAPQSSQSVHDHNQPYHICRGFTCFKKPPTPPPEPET

[14] = growth suppression of PTEN-null colon cells, dose response, cell-based, HCT116 PTEN knockout (AID 1047); type: functional;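 further: HCT116 colon tumor cells with PTEN knocked out; cells exposed to compound for 60 hours before readout; potency for loss of cell viability measured by luminescence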
[15] = growth suppression of beta-catenin-knockout colon cells, dose response, cell-based, HCT116, human colon tumor (AID 1045); type: functional;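 further: HCT116 colon tumor cells with beta catenin knocked out; cells exposed to compound for 60 hours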
[16] = Luminescence Cell-Based Dose Retest to Confirm Inhibitors of Cancer Stem Cells. [Related pubchem assays (depositor defined):AID2717, AID2721]; type: functional, Homo sapiens; settings: Homo sapiens
INS1 = experiment: beta cell apoptosis inhibitors, cytokine rescue, dose response, luminescence, retest (AID 449756); type: functional, cell-based; settings: Rattus norvegicus;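 further: cell death triggered by IL-1 beta plus TNF-alpha plus IFN-gamma mixture; protective hits raise ATP signal compared with cytokine alone wells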
Vero = experiment: host cell cytotoxicity of antiviral hits, dose response, cytotoxicity control for West Nile virus antiviral project, secondary assay (AID 1650); type: functional, Chlorocebus sabaeus; settings: Chlorocebus sabaeus, Vero
[17] = target: Induced myeloid leukemia cell differentiation protein Mcl-1 (Homo sapiens, UniProt Q07820); type: functional
Chain of Induced myeloid leukemia cell differentiation protein Mcl-1 (Q07820 whole entry): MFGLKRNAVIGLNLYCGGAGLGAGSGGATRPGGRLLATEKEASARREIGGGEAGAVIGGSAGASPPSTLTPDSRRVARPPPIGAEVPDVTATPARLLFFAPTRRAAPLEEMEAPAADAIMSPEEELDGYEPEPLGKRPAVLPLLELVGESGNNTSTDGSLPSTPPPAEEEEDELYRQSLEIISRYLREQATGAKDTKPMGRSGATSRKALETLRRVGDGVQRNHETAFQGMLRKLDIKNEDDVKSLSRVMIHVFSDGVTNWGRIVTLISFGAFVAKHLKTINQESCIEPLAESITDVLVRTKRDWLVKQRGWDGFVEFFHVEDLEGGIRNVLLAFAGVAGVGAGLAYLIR

[18] = THP-1 cell cytotoxicity, dose response, cytotoxicity control for non-replicating M. tuberculosis project (AID 489025); type: functional
[19] = HepG2 cell cytotoxicity, dose response, cytotoxicity control for non-replicating M. tuberculosis project (AID 489018); type: functional; settings: Mycobacterium tuberculosis
[20] = Vero E6 cell cytotoxicity, dose response, cytotoxicity control for non-replicating M. tuberculosis project, secondary assay (AID 492998); type: functional, VeroE6; settings: Vero C1008
cells = type: functional

With `COc1ccc(C(=O)Nc2cc(Cl)ccc2C(=O)O)cn1` the IC50 (Hexokinase) was > 25 µM (inactive).
With `CC(C)(C)c1ccc(C(=O)Nc2cc(Cl)ccc2C(=O)O)cc1` the IC50 (Hexokinase) was 2.12 µM (active).
For `C[N+]1(CC(O)COc2ccccc2)CCN(C(=O)c2ccc([N+](=O)[O-])cc2)CC1` (stereo not given), the IC50 [1] was 2.82 µM (active) and the IC50 [2] was 3.44 µM (active).
In the case of `C/C(=N\OC(=O)c1ccc(OC(C)C)cc1)c1ccc(C)c(C)c1`, the IC50 [3] is reported as 7.08 µM (active), the IC50 [4] is reported as 7.94 µM (active) and the IC50 [5] is reported as > 47.1 µM (inactive). For the same compound, the EC50 [6] was > 53 µM (inactive).
With `CCn1c(=O)n(Cc2ccc([N+](=O)[O-])cc2)c(=O)n([C@@H](Cc2ccccc2)C(=O)O)c1=O` the IC50 [7] was > 100 µM (not active), the IC50 [8] was > 100 µM (not active) and the IC50 [9] was > 100 µM (inactive). The IC50 [10] was > 100 µM (inactive).
With `COc1cc(SC#N)ccc1/N=C/c1c(C)[nH]n(-c2ccc(C)cc2)c1=O` the EC50 [11] was > 79.4 µM (not active), the EC50 [12] was > 79.4 µM (not active) and the EC50 [13] was > 79.4 µM (not active). For the same compound, the IC50 (Large T antigen) was 21.2 µM (active), the EC50 [14] was 56.6 µM (active) and the EC50 [15] was 107 µM (active). The AC50 [16] was 2.9 µM (active) and the AC50 (INS1) was 3.6 µM (active).
For `Cc1cc2ncn(/N=C/c3ccc([N+](=O)[O-])s3)c2cc1C`, the CC50 (Vero) was 18.5 µM (active), the EC50 [14] was 3.36 µM (active) and the EC50 [15] was 3.33 µM (active). The IC50 [17] was 3.27 µM (active), the CC50 [18] was 6.75 µM (active) and the CC50 [19] was 14 µM (active). For the same compound, the CC50 [20] was 17.1 µM (active) and the IC50 (cells) was 1.25 µM (active).
For `O=C(CSCc1ccc(Cl)cc1)N/N=C/c1c(Cl)cccc1Cl`, the IC50 [3] was 8.3 µM (active) and the IC50 [4] was 6.47 µM (active).
